{"source": "patent US20250009895A1", "about": "“DRUG LOADING MONOMOLECULAR NANO POLYMER, PRODRUG, MICELLE, DRUG DELIVERY SYSTEM, PREPARATION METHOD, AND USE” (priority 2021, published 2025)", "system": "A549 lung cancer subcutaneous xenograft model", "experiment": "Tumor drug accumulation test, Pt in tumor by ICP-MS", "format": "in vivo, Bal b/c nude mice", "conditions": "tail vein injection, CPT 5 mg/kg and Pt 1.8 mg/kg", "method": "The tumor model used in this example was A549 lung cancer subcutaneous xenograft model. Female Bal b/c nude mice at the age of 8 weeks were administrated with the drug formulation via tail vein injection at a dose of 200 microliters with CPT at 5 mg/kg and Pt at 1.8 mg/kg. Equivalent amounts of cisplatin and the self-assembled dual-drug nano-formulation cisplatin@PEG-PGlu(ss-CPT) served as controls. At different time points after the intravenous injection, the mice were dissected, and the tumor tissues were collected and fully dissolved in concentrated nitric acid. The Pt contents in the tumor tissues were measured using ICP-MS.", "data": [{"smiles": "N.N.[Cl][Pt][Cl]", "note": "[cisplatin]", "values": [{"measurement": "drug (Pt) concentration / enrichment in the tumor", "result": "relatively low"}]}]}
